Test results taken from publication PMC11242640 (International Journal of Molecular Sciences, 2024).
Where two headings read alike, the source gives them in different places.

How the values were obtained:
eeAChE = eeAChE (Electrophorus electricus, UniProt O42275); assay: eeAChE inhibition, modified Ellman's method; assay type: biochemical
Protocol: (§1) Enzymes were prepared in 20 mM Tris buffer pH 7.5 and DTNB, ATChI, and BTChI in 50 mM Tris buffer pH 8.0. Cholinesterase activity was evaluated using a 96-well microplate reader (Bio Tek 800TSUV Absorbance Reader, Agilent, Santa Clara, CA, USA) at room temperature. The microplate well was filled with 180 μL of Tris buffer (50 mM, pH 8.0), 10 μL of tested solutions (final concentrations in a range of 20–1000 μM), 10 μL of an enzyme (final concentration 0.04 U/mL), 10 μL of DTNB (final concentration 0.3 mM), and […] of ATChI/BTChI (final concentration of 0.5 mM). […] Without the use of inhibitors and enzymes, non-enzymatic hydrolysis was evaluated as a blank for the control measurement. The non-enzymatic hydrolysis reaction with an added inhibitor was used as a blank for the samples. The same volume of buffer was substituted for the enzyme. All experiments were run in triplicate. The following formula was applied to calculate the inhibition percentage: Inhibition (%) = [(AC − AT)/AC] × 100, where AC is the activity of the enzyme without a test sample and AT is the activity of the enzyme with a test sample. […] The inhibitory activity of ethanol was subtracted from all the samples. The IC50 values were obtained by a nonlinear fit of compound concentration values versus the response.

eqBChE = target: T1, eqBChE (Equus caballus, UniProt P81908); assay: eqBChE inhibition, modified Ellman's method; assay type: biochemical; conditions: for inhibition of BChE: concentration not given
T1 construct: eqBChE (from equine serum); purchased Sigma–Aldrich (St. Louis, MO, USA); host or cells: equine serum
T1 sequence (P81908 whole entry): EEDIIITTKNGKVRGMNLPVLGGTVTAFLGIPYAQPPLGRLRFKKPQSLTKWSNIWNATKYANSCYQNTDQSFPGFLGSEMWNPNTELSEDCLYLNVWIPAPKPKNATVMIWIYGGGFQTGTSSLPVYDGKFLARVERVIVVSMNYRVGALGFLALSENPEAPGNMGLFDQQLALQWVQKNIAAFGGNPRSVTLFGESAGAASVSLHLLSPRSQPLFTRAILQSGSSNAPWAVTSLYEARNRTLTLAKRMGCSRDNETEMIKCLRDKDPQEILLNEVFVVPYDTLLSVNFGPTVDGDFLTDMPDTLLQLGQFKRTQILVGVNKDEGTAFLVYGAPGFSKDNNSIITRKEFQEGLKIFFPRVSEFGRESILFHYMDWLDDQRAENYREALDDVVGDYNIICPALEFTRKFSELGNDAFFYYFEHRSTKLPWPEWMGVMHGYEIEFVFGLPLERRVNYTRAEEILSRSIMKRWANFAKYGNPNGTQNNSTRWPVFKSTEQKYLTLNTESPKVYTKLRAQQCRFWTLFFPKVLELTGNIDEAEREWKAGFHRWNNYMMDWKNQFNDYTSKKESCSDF
Protocol: as §1

[1] = DPPH radical scavenging activity; conditions: for IC50: 30 min, 25 °C, dash = IC50 value not achieved; for DPPH Inhibition (%): at maximal concentration tested
Description: DPPH is the most commonly used method to determine the antioxidant activity of different potential antioxidants. DPPH is a stable organic radical capable of accepting an electron or a hydrogen radical and changing into a non-radical form, DPPH-H [50]. The percentage of radical quenching is used as a measure of the compound antioxidant capacity.
DPPH radical scavenging activity. The stable radical 1,1-diphenyl-2-picrylhydrazyl (DPPH, Sigma–Aldrich, St. Louis, MO, USA) is the reagent used in this spectrophotometric test. The DPPH ethanolic solution (c = 8⋅10^−4 mol/L) was prepared daily and stored in a dark flask at 4 °C between the measurements. […] The reaction mixture was vortexed and incubated in the dark for 30 min at 25 °C. […] Antioxidant substances reduce the DPPH radical and decrease its absorbance at this wavelength. The DPPH inhibition, reported as a percentage, was obtained according to the equation: Inhibition (%) = [(AC(0) − AA(t))/AC(0)] × 100, where AC(0) is the absorbance of the control at t = 0 min and AA(t) is the absorbance of the antioxidant at t = 30 min. Each of the measurements was conducted three times. Inhibition percentages were expressed as mean values ± standard deviation. IC50 values were calculated using a nonlinear fit of compound concentration values versus the inhibition percentage.

[2] = CUPRAC reducing antioxidant capacity assay; conditions: Trolox equivalent, pH 7.0
Description: The CUPRAC test is based on the reduction of Cu^2+ to Cu^+ due to the action of antioxidants. A reaction occurs at a pH 7.0 (close to physiological pH) in the presence of neocuproin. The reactive Ar-OH groups of polyphenols and other antioxidants are oxidized to the corresponding quinones, and Cu^2+-neocuproin is reduced to the colored complex Cu^+-neocuproin [51].
CUPRAC-reducing-antioxidant-capacity assay. […] Ammonium acetate, neocuproine, copper(II) chloride, and standard Trolox were purchased from Sigma–Aldrich (St. Louis, MO, USA). The reaction mixture contained 1 mL of each of these solutions: NH4Ac buffer (1 M, pH 7.0), Cu(II) chloride (10 mM), and neocuproine (7.5 mM, dissolved in ethanol). To make a final volume of 4.1 mL, x mL of the testing sample (or standard Trolox) and (1,1-x) mL of H2O were added to an initial mixture. The tubes were vortexed and left for 30 min at room temperature. As a blank test, the same mixture was used only without the test sample. Absorbance was recorded at 450 nm (UV-1800 UV/Vis spectrophotometer, Shimadzu, Kyoto, Japan).

[3] = read-out: eeAChE Inhibition (%)
[4] = read-out: eqBChE Inhibition (%)

eeAChE, sequence (O42275 24-633): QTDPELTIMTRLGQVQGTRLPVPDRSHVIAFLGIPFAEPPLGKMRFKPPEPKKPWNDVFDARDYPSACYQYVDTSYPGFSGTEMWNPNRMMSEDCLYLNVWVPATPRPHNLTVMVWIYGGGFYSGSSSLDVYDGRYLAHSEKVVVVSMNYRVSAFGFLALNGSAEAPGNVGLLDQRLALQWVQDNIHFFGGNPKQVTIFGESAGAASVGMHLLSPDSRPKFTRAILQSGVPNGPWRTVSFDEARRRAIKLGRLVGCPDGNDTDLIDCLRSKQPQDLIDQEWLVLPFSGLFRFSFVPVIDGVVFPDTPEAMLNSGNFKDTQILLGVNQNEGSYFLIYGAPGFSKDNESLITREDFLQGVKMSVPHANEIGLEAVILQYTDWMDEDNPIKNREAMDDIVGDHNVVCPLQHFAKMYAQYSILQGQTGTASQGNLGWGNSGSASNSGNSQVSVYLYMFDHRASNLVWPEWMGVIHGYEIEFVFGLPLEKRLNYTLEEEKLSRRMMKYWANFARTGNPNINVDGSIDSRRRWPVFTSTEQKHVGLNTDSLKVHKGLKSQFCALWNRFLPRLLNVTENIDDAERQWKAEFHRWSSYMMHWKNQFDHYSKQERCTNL

SMILES | IC50 (eeAChE; dash = IC50 value not achieved) [µM] | inhibition at 500 µM (eeAChE; [3]) [%] | IC50 (eqBChE; dash = IC50 value not achieved) [µM] | inhibition at 500 µM (eqBChE; [4]) [%] | IC50 [1] [µM] | DPPH Inhibition (%) ([1]; 500 μM) | CUPRAC [2] | also measured
Cc1cnc(/C=C\c2cc(Cl)ccc2O)s1 [Compound 10, (Z)-4-chloro-2-(2-(5-methylthiazol-2-yl)vinyl)phenol] | > 100 | 34.2 ± 2.1 | > 250 | 22.4 ± 9 | > 250 | 24.0 ± 0.7 (500) % | 0.630 mol TE/mol of Compound | 
Cc1cnc(/C=C/c2cccc(O)c2)s1 [Compound 14, (E)-3-(2-(5-methylthiazol-2-yl)vinyl)phenol] | > 100 |  | > 250 |  | > 250 |  |  | inhibition at 250 µM (eeAChE; [3]): 10.7 ± 2.4%; inhibition of BChE (eqBChE): < 50%; inhibition at 250 µM (eqBChE; [4]): 15.6 ± 3.6%; DPPH Inhibition (%) ([1]; 250 μM): 11.2 ± 2.7 (250) %
Cc1cnc(/C=C\c2cc(F)ccc2O)s1 [Compound 9, (Z)-4-fluoro-2-(2-(5-methylthiazol-2-yl)vinyl)phenol] | > 100 |  | > 250 |  | 428 | 55.4 ± 0.7 (500) % | 1.000 mol TE/mol of Compound | inhibition at 100 µM (eeAChE; [3]): 17.6 ± 3.1%; inhibition at 250 µM (eqBChE; [4]): 10.5 ± 4.1%
Cc1ccc(O)c(/C=C/c2cccs2)c1 [Compound 4, (E)-4-methyl-2-(2-(thiophen-2-yl)vinyl)phenol] | 225 |  | 36.5 |  | 51.4 |  | 0.852 mol TE/mol of Compound | inhibition at 250 µM (eeAChE; [3]): 82.1 ± 1.1%; inhibition at 250 µM (eqBChE; [4]): 81.1 ± 2.2%; DPPH Inhibition (%) ([1]; 400 μM): 90.3 ± 0.6 (400) %
Oc1ccc(F)cc1/C=C/c1cccs1 [Compound 1, (E)-4-fluoro-2-(2-(thiophen-2-yl)vinyl)phenol] | 178 | 80.9 ± 1.9 | 66 |  | 159 | 77.2 ± 0.5 (500) % | 0.925 mol TE/mol of Compound | inhibition at 400 µM (eqBChE; [4]): 83.5 ± 0.8%
COc1ccc(O)c(/C=C/c2cccs2)c1 [Compound 3, (E)-4-methoxy-2-(2-(thiophen-2-yl)vinyl)phenol] | 405 | 77.8 ± 5.2 | 206 | 68.5 ± 6.2 | 36.2 | 87.7 ± 0.8 (500) % | 1.111 mol TE/mol of Compound | 
Cc1ccc(/C=C/c2cc(Cl)ccc2O)s1 [Compound 6, (E)-4-chloro-2-(2-(5-methylthiophen-2-yl)vinyl)phenol] |  |  |  |  | > 250 |  | 1.407 mol TE/mol of Compound | IC50 (eeAChE): 27.1 µM; inhibition at 80 µM (eeAChE; [3]): 82.4 ± 0.8%; IC50 (eqBChE): 39.7 µM; inhibition at 100 µM (eqBChE; [4]): 84 ± 1.8%; DPPH Inhibition (%) ([1]; 400 μM): 42.9 ± 2.7 (400) %
Cc1ccc(/C=C/c2cc(F)ccc2O)s1 [Compound 5, (E)-4-fluoro-2-(2-(5-methylthiophen-2-yl)vinyl)phenol] | 155 |  | 22.9 |  | 130 |  | 0.204 mol TE/mol of Compound | inhibition at 250 µM (eeAChE; [3]): 84.6 ± 2.7%; inhibition at 100 µM (eqBChE; [4]): 75.3 ± 2.3%; DPPH Inhibition (%) ([1]; 400 μM): 83.0 ± 1.9 (400) %
Oc1ccc(Cl)cc1/C=C/c1cccs1 [Compound 2, (E)-4-chloro-2-(2-(thiophen-2-yl)vinyl)phenol] | 82.3 |  | 53 |  | 265 | 65.0 ± 2.4 (500) % | 0.713 mol TE/mol of Compound | inhibition at 250 µM (eeAChE; [3]): 83 ± 2.5%; inhibition at 200 µM (eqBChE; [4]): 80.4 ± 6.4%
Cc1cnc(/C=C/c2ccc(O)cc2)s1 [Compound 12, (E)-4-(2-(5-methylthiazol-2-yl)vinyl)phenol] | > 100 | 9.1 ± 1.4 | 189 | 68.4 ± 1.3 | 140 |  |  | DPPH Inhibition (%) ([1]; 524 μM): 74.1 ± 0.4 (524) %
Cc1cnc(/C=C/c2ccccc2O)s1 [Compound 13, (E)-2-(2-(5-methylthiazol-2-yl)vinyl)phenol] | > 100 | 17.1 ± 3.9 | 30.7 | 78.2 ± 3.8 | 699 |  |  | DPPH Inhibition (%) ([1]; 1047 μM): 59.8 ± 2.3 (1047) %
COc1ccc(O)c(/C=C/c2ccc(C)s2)c1 [Compound 7, (E)-4-methoxy-2-(2-(5-methylthiophen-2-yl)vinyl)phenol] |  |  |  |  | 23.8 |  | 2.350 mol TE/mol of Compound | IC50 (eeAChE): 62.9 µM; inhibition at 200 µM (eeAChE; [3]): 81.1 ± 1.1%; IC50 (eqBChE): 42.5 µM; inhibition at 200 µM (eqBChE; [4]): 83.1 ± 0.8%; DPPH Inhibition (%) ([1]; 50 μM): 86.2 ± 2.3 (50) %
COc1ccc(/C=C/c2ncc(C)s2)c(O)c1 [Compound 11, (E)-5-methoxy-2-(2-(5-methylthiazol-2-yl)vinyl)phenol] | > 100 | 29.3 ± 1.8 | > 250 | 9.8 ± 2.7 | 30.1 |  |  | inhibition of BChE (eqBChE): < 50%; DPPH Inhibition (%) ([1]; 524 μM): 89.8 ± 0.0 (524) %
Cc1ccc(O)c(/C=C/c2ccc(C)s2)c1 [Compound 8, (E)-4-methyl-2-(2-(5-methylthiophen-2-yl)vinyl)phenol] |  |  |  |  | 26.3 |  | 1.148 mol TE/mol of Compound | IC50 (eeAChE): 92.4 µM; inhibition at 150 µM (eeAChE; [3]): 78.2 ± 7.7%; IC50 (eqBChE): 24.8 µM; inhibition at 250 µM (eqBChE; [4]): 88.5 ± 5%; DPPH Inhibition (%) ([1]; 250 μM): 89.3 ± 1.2 (250) %
